Laboratory results as given in patent US11426494B2, “Stents having biodegradable layers” (MT Acquisition Holdings LLC, priority 2007, dated 2022).
Values belong to the compound of their own block, whether it stands above or below them.

Assays:
[1] = rapamycin degradation in DES coating (peak area ratio, control vs Micell processed); assay type: physicochemical; conditions: Micell processed materials vs control samples, FIG. 6
[2] = drug elution from DES coating; assay type: physicochemical; conditions: heparin+taxol in DES coating, FIG. 9, preliminary data

Compound: CO[C@H]1C[C@@H]2CC[C@@H](C)[C@@](O)(O2)C(=O)C(=O)N2CCCC[C@H]2C(=O)O[C@H]([C@H](C)C[C@@H]2CC[C@@H](O)[C@H](OC)C2)CC(=O)[C@H](C)/C=C(\C)[C@@H](O)[C@@H](OC)C(=O)[C@H](C)C[C@H](C)/C=C/C=C/C=C/1C [rapamycin]
- rate of rapamycin degradation (peak area ratio) [1]: no difference in the rate of rapamycin degradation

- heparin elution continuing [2]: > 15 days
Compound: heparin

Compound: CC(=O)O[C@H]1C(=O)[C@@]2(C)[C@H]([C@H](OC(=O)c3ccccc3)[C@]3(O)C[C@H](OC(=O)[C@H](O)[C@@H](NC(=O)c4ccccc4)c4ccccc4)C(C)=C1C3(C)C)[C@]1(OC(C)=O)CO[C@@H]1C[C@@H]2O [taxol]
- primary drug (taxol) elution profile on addition of a 2nd drug (heparin) [2]: not affecting primary drug (taxol) elution profile
